Consider 16 sequences from patent US12180306B2, “Anti-allergic peptide and use thereof for immune regulation and anti-allergy” (Greenyn Biotechnology Co., Ltd, priority 2022, dated 2024).

For this assay, the system named is mouse mast cells P815. As to the kind of experiment: Inhibition of IL-4 and IL-13 secretion by compound 48/80-induced mouse mast cells P815. The note with it: synthetic peptides; for effects in inhibiting secretion of IL-4 and IL-13 by cells: comparison within Table 3; for inhibiting allergic reactions: conclusion from Table 3; for IL-4 Concentration decrease percentage (%) / IL-13 Concentration decrease percentage (%): P815 cells, compound 48/80 10 μg/mL. Also on record: key to IL-13 Concentration decrease percentage (%) / IL-4 Concentration decrease percentage (%): N represents that the results obtained have not decreased. It is filed as cell-based. The method, then: Referring to the method disclosed in Example 3, an ability of each of the above synthetic sequences in inhibiting secretion of cytokines such as IL-4 and IL-13 is tested, the results are shown in Table 3, where N represents that the results obtained have not decreased.

For GLGDAKVALGI [Peptide 3], the “effects in inhibiting secretion of IL-4 and IL-13 by cells” value (“effects in inhibiting secretion” for short) is on record as “better effects”; the inhibiting allergic reactions result was “capable of inhibiting allergic reactions”; the “IL-4 Concentration decrease percentage (%)” value is on record as 5.1%; the “IL-13 Concentration decrease percentage (%)” value worked out at 21.7%.

Regarding GVSGGVLAAILG [Peptide 9], the “IL-4 Concentration decrease percentage (%)” value is on record as 5.8% and the “IL-13 Concentration decrease percentage (%)” value is 2.7%.

Take PPYQGAPLM [Peptide 11]: the “IL-4 Concentration decrease percentage (%)” value is 10.0% and the “IL-13 Concentration decrease percentage (%)” value is given as “N”.

Turning to TANAIGLAGLI [Peptide 10], the “IL-4 Concentration decrease percentage (%)” value came to 9.3% and the “IL-13 Concentration decrease percentage (%)” value was “N”.

QTAQALVLIG [Peptide 13]: the “IL-4 Concentration decrease percentage (%)” value is given as “N” and the “IL-13 Concentration decrease percentage (%)” value turned out to be 12.1%.

As for NKKQAAALGI [Peptide 8], the “IL-4 Concentration decrease percentage (%)” value was 1.0% and the “IL-13 Concentration decrease percentage (%)” value worked out at 11.4%.

Turning to TRQKALAALGI [Peptide 16], the “IL-4 Concentration decrease percentage (%)” value was “N” and the “IL-13 Concentration decrease percentage (%)” value came to 5.9%.

For ADALQLVLAV [Peptide 15], the “IL-4 Concentration decrease percentage (%)” value came out at 2.7% and the “IL-13 Concentration decrease percentage (%)” value was 3.8%.

Consider VGNSLAAVIIG [Peptide 6], for which the “IL-4 Concentration decrease percentage (%)” value is 0.9% and the “IL-13 Concentration decrease percentage (%)” value turned out to be 2.7%.

For LVPWSIIGL [Peptide 14], the “IL-4 Concentration decrease percentage (%)” value was “N” and the “IL-13 Concentration decrease percentage (%)” value was found to be 9.8%.

For PMALLAVLGL [Peptide 7], the “IL-4 Concentration decrease percentage (%)” value was determined as 4.1% and the “IL-13 Concentration decrease percentage (%)” value is 5.2%.

As to NPALQVIKV [Peptide 2], the “effects in inhibiting secretion” value is “better effects”; the inhibiting allergic reactions entry is given as “capable of inhibiting allergic reactions”; the “IL-4 Concentration decrease percentage (%)” value is listed as 8.1%; the “IL-13 Concentration decrease percentage (%)” value turned out to be 27.1%.

On to EWLLGLLGI [Peptide 4], for which the inhibiting allergic reactions entry is “capable of inhibiting allergic reactions”, the “IL-4 Concentration decrease percentage (%)” value is on record as 19.9% and the “IL-13 Concentration decrease percentage (%)” value is 35.4%.

For the sequence KIVNQVNHLNPT [Peptide 12], the “IL-4 Concentration decrease percentage (%)” value is on record as “N” and the “IL-13 Concentration decrease percentage (%)” value was determined as 10.8%.

Regarding DLDVVVALGI [Peptide 5], the “effects in inhibiting secretion” value is listed as “better effects”; the inhibiting allergic reactions entry is “capable of inhibiting allergic reactions”; the “IL-4 Concentration decrease percentage (%)” value came to 7.3%; the “IL-13 Concentration decrease percentage (%)” value came to 24.0%.

On to DLQLAGLIGL [Peptide 1], for which the inhibiting allergic reactions entry is recorded as “capable of inhibiting allergic reactions”, the “IL-4 Concentration decrease percentage (%)” value was determined as 14.5% and the “IL-13 Concentration decrease percentage (%)” value is 24.0%.
